These are literature values, as cited in patent publication US20240024221A1, “COMPOSITION FOR BRIGHTENING AND/OR WHITENING KERATIN MATERIALS” (L'OREAL, priority 2020, published 2024).

The conditions of the data set: 25° C.; raw material table.
In the case of `CCCCCCCCCCC(CCCCCCCC)CO[C@@H]1OC[C@@H](O)[C@H](O)[C@H]1O` (some centres unmarked) [OCTYLDODECYL XYLOSIDE], the HLB is reported as 7.3.

On to `CCCCCCCCCCCC[N+](C)(C)CC(=O)[O-]` [LAURYL BETAINE], for which the HLB was 15.

Take POLYSORBATE 20: the HLB is 18.6.

Take SODIUM DILAURAMIDOGLUTAMIDE LYSINE: the HLB is 12.6.

Turning to POLYGLYCERYL-2 OLEATE, the HLB is on record as 8.
